Test results from the NIST ThermoML archive (doi:10.1016/j.fluid.2005.03.027).
Numbers after ± are expanded uncertainties.

Conditions: Crystal; visual observation

Structure (SMILES) | Normal melting temperature
Cc1cc(C)cc(O)c1 [3,5-dimethylphenol] | 63.77 ± 0.39 °C
CN1CCCC1=O [N-methylpyrrolidone] | -23.47 ± 0.39 °C
Oc1ccccc1 [phenol] | 41.70 ± 0.39 °C
